Measured values from US20230149378A1, “Aminothiolester compounds or pharmaceutically acceptable salts thereof, for use for the treatment of cancer” (ADVANCED BIODESIGN, priority 2015, published 2023).

Experiments:
HL-60 (leukemia) = assay: Alamar blue growth inhibition, cell line HL60; format: cell-based; conditions: Homo sapiens
Procedure: (§1) Cells were seeded into 96-well cell culture plates at concentrations required to ensure approximately 80% confluence in control (untreated cells) at the end of experiment (0.5×10^4-5×10^4 cell/well). The sensitivity towards S-methyl 4-(dimethylamino)-4-methylpent-2-ynethioate was determined using different concentrations of the drug (from 0.01 to 100 μM). After 48 hours, the growth-inhibitory effect of the drug was analyzed using Alamar blue, according to manufactures instructions. The Alamar Blue assay was used based on earlier observations: similar results were found with Alamar blue, tetrazolium reduction (XTT assay). To ensure good data quality and to minimize impact of pipetting errors, each particular drug concentration was assessed based on mean fluorescence intensity from 8 separate wells. The drug response was quantified by the half maximal inhibitory concentration (IC50) for each particular cell line, and determined by non-linear regression analysis of log-dose/response curves. Cut-off value for resistance to S-methyl 4-(dimethylamino)-4-methylpent-2-ynethioate was determined statistically (>2 S.D. above the IC50 geometric mean). The in-vitro threshold value for hypersensitivity to the drug has been defined as <IC50 geometric mean.
(§2) In addition, other compounds according to the invention were tested by following the above mentioned material and method on the cell line DU145 (prostatic cancer line) and the cell line HL60 (leukemia) mentioned in Table 2.

[1] = tested on: DU145 (prostatic cancer line); assay: Alamar blue growth inhibition, cell line DU145; format: cell-based; conditions: Homo sapiens, DU-145
Procedure: as §1, §2

Colo357 cells [2] = assay: Measurement of GSH level (GSH-Glo); format: cell-based; conditions: 100 μM, FIG. 8(A)
Procedure: (§3) Cells were seeded in 96-well black walled plate (5×10^4 cells/mL) and incubated overnight for attachment. The cells were treated either with vehicle, DMSO, BCNU 100 μM, S-methyl 4-(dimethylamino)-4-methylpent-2-ynethioate 20 μM, for 24 hours. The total glutathione was measured according to the instructions of the kit (GSH-Glo™, Promega) and results were obtained for 25 000 cells.

[3] = Aruoma et al 1989; cited from earlier work
HL-60 cells [4] = assay: Measurement of GSH level (GSH-Glo); format: cell-based, human; conditions: HL-60 cells treated with 2.5 mM NAC; FIG. 6(B)
Procedure: as §3

[5] = Aruoma et al 1989; cited from earlier work; remark: listed apart in the source
[6] = tested on: cancer cell lines which overproduce H2O2; assay: Viability assay (resazurin, XTT or MTT) on various cancer cell lines; format: cell-based, human; conditions: FIG. 1
Procedure: A panel of 52 human tumor cells representing 10 tissue types has been selected to cover a broad set of different oncogenes and according to their response to different standard chemotherapeutics. […]
as §1, with “The Alamar Blue assay was used based on earlier observations: similar results were found with Alamar blue, tetrazolium reduction (XTT assay).” left out, “The in-vitro threshold value for hypersensitivity to the drug has been defined as <IC50 geometric mean.” left out

[7] = tested on: sensitive cells (HL-60, NT2/D1); assay: MDA-adducts ELISA, sensitive cells; format: cell-based, human; conditions: 5 or 10 μmol·L^−1 during 24 hours, FIG. 10
Procedure: (§4) The formation of HNE-adducts and MDA-adducts was quantified with the Oxiselect HNE Adduct Elisa kit (Cell Biolabs, San Diego, Calif.) and the OxiSelect MDA Adduct ELISA Kit (Cell Biolabs), respectively. Briefly, after a treatment with S-methyl 4-(dimethylamino)-4-methylpent-2-ynethioate during 24 hours, cells were lysed by sonication in reducing SDS Sample Buffer. Homogenates were diluted to 10 μg protein/mL and adsorbed in 96-well protein binding plates by incubation at 37° C. for at least 2 hours. Wells were washed twice with PBS and incubated for an additional 2 hours at room temperature on an orbital shaker. Following three washes in PBS, 100 μL of anti-HNE antibody or anti-MDA antibody were added to the wells and incubated for 1 hour at room temperature. Subsequently, goat anti-rabbit secondary antibody-HRP conjugate (diluted 1/1000 with the assay diluent) was added and incubation continued for 1 hour. Wells were washed five times in PBS and HRP-substrate was added. Reaction was stopped with an acidic solution, and absorbance read on a microplate reader at 450 nm. The level of HNE-adducts and of MDA-adducts was determined by comparison with a standard curve prepared from HNE-BSA and MDA-BSA standards supplied by the manufacturer. […]

normal cells = assay: Selectivity control on normal cells; format: cell-based, human; conditions: same method as cancer cells
Procedure: as §1, with “mean. […]” for “mean.”

[8] = tested on: sensitive cells (HL-60, NT2/D1); assay: HNE-adducts ELISA, sensitive cells; format: cell-based, human; conditions: 5 or 10 μmol·L^−1 during 24 hours, FIG. 10
Procedure: as §4

[9] = tested on: huvec (Human umbilical vein endothelial cells); assay: Alamar blue growth inhibition, normal human primary cells; format: cell-based; conditions: 48 hours
Procedure: as §1
(§5) In addition, to control the selectivity of the S-methyl 4-(dimethylamino)-4-methylpent-2-ynethioate toward cancer cells, the compound according to the invention was also tested on normal cells by using the same method as the one described above.

[10] = tested on: HPF (Human Pulmonary fibroblasts); assay: as above; format: cell-based; conditions: Pulmonary fibroblast, 48 hours
Procedure: as §1, §5

[11] = tested on: BEAS-2B (Human bronchial epithelial cells); assay: as above; format: cell-based; conditions: 48 hours
Procedure: as §1, §5

[12] = tested on: hMCSs-BM (Human mesenchymal stem cells from bone marrow); assay: as above; format: cell-based; conditions: 48 hours
Procedure: as §1, §5

[13] = tested on: NHEM (Normal Human epidermal melanocytes); assay: as above; format: cell-based; conditions: Melanocyte, 48 hours
Procedure: as §1, §5

resistant cells (MSC) [14] = assay: HNE-adducts ELISA, resistant cells; format: cell-based, human; conditions: 5 or 10 μmol·L^−1 during 24 hours, FIG. 10
Procedure: as §4

HL60 cancers cells = assay: Measurement of H2O2 production (Total ROS/superoxide detection kit); format: cell-based, human; conditions: FIG. 6(A)
Procedure: Intracellular H2O2 production in live cells was measured using Total ROS/superoxide detection kit (Enzo life science), following the manufacturer's instructions. The assay uses specific H2O2/RNS probes that upon reaction with H2O2 and RNS species were oxidized rapidly to highly fluorescent compounds. Fluorescence intensity is proportional to the total H2O2/RNS levels within the sample. […] The day before the analysis, cells were seeded in 96-well black/clear bottom plates at a density of 2×10^4 in culture media according to cell suppliers instructions, supplemented with FBS (10% v/v), 10 units of penicillin/mi and […] of streptomycin. Cells were kept at 37° C. in a humid atmosphere of 95% air: 5% CO2 overnight. On the day of the analysis, cells media was replaced by 100 μL of phenol free-media supplemented as above, without any treatment, with S-methyl 4-(dimethylamino)-4-methylpent-2-ynethioate for 6 hours, vehicle HEPES for 6 hours, or with NAC for 20 min. […] Several wells were left without cells for the background fluorescence control measurements. Plates were read using fluorescence microplate reader (ex=560 nm, Em=600). Data were expressed as the change in arbitrary fluorescence units produced from equal amounts of cells and normalized to total protein input.

resistant cells (MSC) [15] = assay: MDA-adducts ELISA, resistant cells; format: cell-based, human; conditions: 5 or 10 μmol·L^−1 during 24 hours, FIG. 10
Procedure: as §4

HL-60 cells [16] = assay: Viability of HL-60 cells with NAC or GSH-MEE (induction of resistance); format: cell-based
Procedure: To revert S-methyl 4-(dimethylamino)-4-methylpent-2-ynethioate-induced cell death, drug sensitive cells HL-60 were exposed to S-methyl 4-(dimethylamino)-4-methylpent-2-ynethioate (10 μM) in the presence of the reduced glutathione analog Glutathione Monoethyl Ester (GSH-MEE) at concentrations 10 mM or S-methyl 4-(dimethylamino)-4-methylpent ynethioate in combination. HL-60 were seeded, into 96-wells plate, at a concentration of 5×10^4 cells/well in 100 μL of complemented medium supplemented with Glutathione Monoethyl Ester (GSH-MEE) 10 mM. After 90 minutes incubation, cells were washed with PBS and cells were incubated using different concentrations of the drug (from 0.01 to 100 μM). After 24 h and 48 h cell viability was measure using the Rezasurin assay as described above.

Colo357 cells [17] = assay: Viability of Colo357 cells treated with BCNU; format: cell-based; conditions: Colo357 cells treated with 100 μM carmustine (BCNU); FIG. 8(B)

In the case of CSC(=O)C#CC(C)(C)N1CCOCC1 [S-methyl 4-methyl-4-(morpholin-4-yl)pent-2-ynethioate], the IC50 (HL-60 (leukemia)) is reported as 30 µM and the IC50 [1] is reported as 9.3 µM.

Molecule CSC(=O)C#CC(C)(C)N1CCCCC1 [S-methyl 4-methyl-4-(piperidin-1-yl)pent-2-ynethioate] has an IC50 (HL-60 (leukemia)) of 7.21 µM and an IC50 [1] of 22 µM.

In the case of CSC(=O)C#CC(C)(C)N(C)Cc1ccccc1 [S-methyl 4-[benzyl(methyl)amino]-4-methylpent-2-ynethioate], the IC50 (HL-60 (leukemia)) is reported as 10.4 µM and the IC50 [1] is reported as 1.4 µM.

In the case of O=NN(CCCl)C(=O)NCCCl [carmustine], the “decrease of the GSH level” value (Colo357 cells [2]) is reported as 50%.

In the case of CC(=O)N[C@@H](CS)C(=O)O [NAC, N-acetyl-L-cysteine], the “rate constant, scavenging of hydroxy radicals” value [3] is listed as 1.36×10^10 M^−1,s^−1, the “amount of GSH level” value (HL-60 cells [4]) is listed as “significantly increased” and the “rate constant, reaction with hydrogen peroxide” value [5] is listed as 0.38 M^−1, s^−1.

For CSC(=O)C#CC(C)(C)N(C)C [S-methyl 4-(dimethylamino)-4-methylpent-2-ynethioate], the “efficacy in cancer cell lines (viability assay)” value [6] was “effective”, the MDA-adducts level [7] was “above 100 ng per μg of total protein” and the “effect on normal cells” value (normal cells) was “no effect”. For the same molecule, the HNE-adducts level [8] was > 1 μg per μg of total protein, the IC50 [9] was greater than 50 µM and the IC50 [10] was greater than 100 µM. It also gave an IC50 [11] greater than 50 µM, an IC50 [12] greater than 50 µM and an IC50 [13] greater than 100 µM. For the same molecule, the HNE-adducts level (resistant cells (MSC) [14]) was < 1 μg per μg of total protein, the IC50 (HL-60 (leukemia)) was 7.6 µM and the “H2O2 activity level in Relative Fluorescence Unit (RFU)” value (HL60 cancers cells; HL60, 5 μM for 24 hours) was “increased”. The “H2O2 activity level in Relative Fluorescence Unit (RFU)” value (HL60 cancers cells; HL60, treatment in addition with 2.5 mM N-acetyl-Cysteine (NAC)) was “no H2O2 increase”, the MDA-adducts level (resistant cells (MSC) [15]) was < 100 ng per μg of total protein and the IC50 [1] was 7.2 µM. For the same molecule, the “viability of HL-60 cells” value (HL-60 cells [16]; 5, 10 μmol·L-1 and 2.5 mM NAC, FIG. 6(C)) was “inhibition of efficacy”, the “cytotoxic effect on HL-60 cells” value (HL-60 cells [16]; after pre-treatment of 10 mM GSH-MEE, FIG. 7) was “no more effective” and the decrease of viability (Colo357 cells [17]) was 50%.

CSC(=O)C#CC(C)(C)N(C)c1ccccc1 [S-methyl 4-methyl-4-[methyl(phenyl)amino]pent-2-ynethioate] gave an IC50 (HL-60 (leukemia)) of 24.8 µM and an IC50 [1] of 12.5 µM.
